Laboratory results: US9375004B2 (Bayer Intellectual Property GmbH, priority 2010, dated 2016)
Like-named read-outs stand apart in the source and are kept apart here.

Columns and labels:
Alternaria solani = experiment: Alternaria test (tomato)/preventive; assay type: in vivo; conditions: 500 ppm, preventive, evaluated 7 days after inoculation
Puccinia triticina = experiment: Puccinia triticina-test (wheat)/preventive; assay type: in vivo; conditions: 500 ppm, preventive, evaluated 8 days after inoculation
Pyrenophora teres = experiment: Pyrenophora teres-test (barley)/preventive; assay type: in vivo; conditions: 500 ppm, preventive, evaluated 8 days after inoculation
Uromyces appendiculatus = conditions: 100 ppm, beans, preventive, evaluated 10 days after inoculation
Botrytis cinerea = experiment: Botrytis test (beans)/preventive; conditions: 100 ppm, preventive, lesion size 2 days after inoculation
Protocol: Botrytis Test (Beans)/Preventive
Solvent: 24.5 parts by weight of acetone • 24.5 parts by weight of N,N-dimethylformamide
Emulsifier: 1 part by weight of alkylaryl polyglycol ether
After the spray coating has dried on, 2 small pieces of agar covered with growth of Botrytis cinerea are placed on each leaf. The inoculated plants are placed in a darkened chamber at 20° C. and a relative atmospheric humidity of 100%.
2 days after the inoculation, the size of the lesions on the leaves is evaluated.

Venturia inaequalis = experiment: Venturia test (apples)/preventive; conditions: 100 ppm, preventive, evaluated 10 days after inoculation
[1] = logP by HPLC on reversed-phase column (EEC Directive 79/831 Annex V.A8); conditions: HPLC on reversed-phase column (C 18), EEC Directive 79/831 Annex V.A8
Sphaerotheca fuliginea = experiment: Sphaerotheca test (cucumber)/preventive; assay type: in vivo; conditions: 500 ppm, preventive, evaluated 7 days after inoculation
[2] = system: Fusarium nivale (var. majus); experiment: Fusarium nivale (var. majus)-test (wheat)/preventive; conditions: preventive, evaluated 5 days after inoculation
Septoria tritici = experiment: Septoria tritici-test (wheat)/preventive; assay type: in vivo; conditions: 500 ppm, preventive, evaluated 21 days after inoculation

SMILES	Efficacy (Alternaria solani)	Efficacy (Puccinia triticina)	Efficacy (Pyrenophora teres)	Efficacy (Uromyces appendiculatus)	Efficacy (Botrytis cinerea)	Efficacy (Venturia inaequalis)	logP [1]	Efficacy (Sphaerotheca fuliginea)	Efficacy ([2]; 500 ppm)	Efficacy (Septoria tritici)	Efficacy ([2]; 250 ppm)	Efficacy (Uromyces appendiculatus; listed as 104 from this invention)
CCCC(C)c1ccccc1NC(=O)c1c(C(F)F)nn(C)c1F (centres unmarked) [Example 8]	95%	100%	100%	100%	98%	100%	3.55					
CCCC(C)c1ccccc1NC(=O)c1c(C(F)F)nn(C)c1Cl (centres unmarked) [Example 9]	95%	100%	100%	100%		100%	3.77	100%	100%			
COC(C)(C)CCc1ccccc1NC(=O)c1c(C(F)F)nn(C)c1F [Example 23]	70%	100%	71%	90%		100%	2.74			100%		
Cn1nc(C(F)F)c(C(=O)Nc2ccc(F)cc2OCC(C)(C)C)c1F [Example 28]	70%	100%	71%	94%		100%	4.08			90%		
CC1CCCC(c2ccccc2NC(=O)c2c(C(F)F)nn(C)c2Cl)C1 (centres unmarked) [Example 53]	100%			100%	94%	100%	4.29	100%				
Cn1nc(C(F)F)c(C(=O)Nc2cccc3c2C2CCC3C2=C(Cl)Cl)c1Cl (centres unmarked) [Example 71]	80%	100%	100%	100%	94%	100%	4.21	100%	94%		94%	
Cn1nc(C(F)F)c(C(=O)Nc2cccc3c2C2CCC3C2=C(Cl)Cl)c1F (centres unmarked) [Example 72]	70%	94%	100%	100%	100%	100%	3.99	100%	100%		100%	
Cn1nc(C(F)F)c(C(=O)Nc2ccccc2-c2ccc(F)cc2)c1F [Example 80]	95%						3.20	98%				
Cn1nc(C(F)F)c(C(=O)Nc2ccccc2-c2ccc(Cl)cc2)c1F [Example 85]	95%	100%	100%	100%	100%	100%	3.57	98%	100%			
Cn1nc(C(F)F)c(C(=O)Nc2ccccc2-c2cccc(Cl)c2)c1Cl [Example 87]	95%						3.87	95%				
Cn1nc(C(F)F)c(C(=O)Nc2ccccc2-c2ccc(Cl)cc2)c1Cl [Example 88]	94%	100%	100%	100%	92%	100%	3.85	100%	100%			
Cn1nc(C(F)F)c(C(=O)Nc2ccccc2-c2ccc(F)c(F)c2)c1Cl [Example 89]	94%	100%	100%	100%	100%	100%	3.40	100%	100%			
Cn1nc(C(F)F)c(C(=O)Nc2ccccc2-c2ccc(F)c(F)c2)c1F [Example 90]	90%	100%	100%				3.20	95%		86%		
Cn1nc(C(F)F)c(C(=S)Nc2ccccc2-c2ccc(Cl)c(F)c2)c1Cl [Example 101]	80%	100%	100%				3.92	95%	100%			
Cn1nc(C(F)F)c(C(=O)Nc2ccccc2-c2cc(F)c(F)c(F)c2)c1F [Example 104]		100%	100%		100%	100%	3.30					100%
Cn1nc(C(F)F)c(C(=S)Nc2ccccc2-c2cc(F)c(F)c(F)c2)c1F [Example 106]	90%	100%	100%	100%		100%	3.65	98%		80%		

SMILES	Efficacy (Alternaria solani)	Efficacy (Puccinia triticina)	Efficacy (Pyrenophora teres)	Efficacy (Uromyces appendiculatus)	Efficacy (Botrytis cinerea)	Efficacy (Venturia inaequalis)	logP [1]	Efficacy (Sphaerotheca fuliginea)	Efficacy ([2]; 500 ppm)	Efficacy (Septoria tritici)	Efficacy ([2]; 250 ppm)	Efficacy (Uromyces appendiculatus; listed as 104 from this invention)
Cn1nc(C(F)F)c(C(=O)Nc2ccccc2-c2cc(F)c(F)cc2F)c1F [Example 107]	100%						3.25	88%				
Cn1nc(C(F)F)c(C(=O)Nc2ccccc2-c2cc(F)c(F)cc2F)c1Cl [Example 108]	100%			100%	99%	100%	3.46	93%				
Cn1nc(C(F)F)c(C(=O)Nc2c(F)cccc2-c2ccc(Cl)c(Cl)c2)c1F [Example 115]	95%	88%		100%	94%	100%	3.50		86%			
Cn1nc(C(F)F)c(C(=O)Nc2ccccc2-c2ccc(Cl)c(Cl)c2)c1F [Example 125]	95%	100%	100%	100%	100%	100%	3.85	98%				
Cn1nc(C(F)F)c(C(=O)Nc2ccccc2-c2ccc(Cl)c(Cl)c2)c1Cl [Example 126]	89%	100%	100%	96%		75%	4.14	100%	100%			
Cn1nc(C(F)F)c(C(=O)Nc2ccccc2-c2ccc(-c3ccccc3)cc2)c1F [Example 137]	95%	100%	93%	99%		100%	4.27	100%				
Cn1nc(C(F)F)c(C(=O)Nc2ccccc2-c2ccc(-c3ccccc3)cc2)c1Cl [Example 138]		100%	86%				4.61	100%				
Cn1nc(C(F)F)c(C(=O)Nc2ccccc2-c2ccc(Br)cc2)c1Cl [Example 140]		100%	100%	100%	98%	100%	3.88		86%			
Cn1nc(C(F)F)c(C(=S)Nc2ccccc2-c2ccc(Br)cc2)c1Cl [Example 141]	70%						3.96	95%				
Cn1nc(C(F)F)c(C(=O)Nc2ccc(F)cc2-c2ccc(C(F)(F)F)c(F)c2)c1F [Example 150]	89%	100%	100%	98%	100%	100%	3.66	100%	86%			
Cn1nc(C(F)F)c(C(=S)Nc2ccccc2-c2ccc(C(F)(F)F)c(F)c2)c1Cl [Example 151]	95%	100%	100%				4.06	98%	100%	93%		
Cn1nc(C(F)F)c(C(=O)Nc2ccccc2-c2ccc(Br)c(Cl)c2)c1F [Example 152]	94%	100%	100%	100%	100%	100%	3.83	95%	100%			
Cn1nc(C(F)F)c(C(=O)Nc2ccccc2-c2ccc(Br)cc2Cl)c1Cl [Example 154]	95%			100%	78%	100%	4.16	100%				
Cn1nc(C(F)F)c(C(=O)Nc2ccccc2-c2ccc(Br)cc2Cl)c1F [Example 155]	95%			100%	100%	100%	3.85					
Cn1nc(C(F)F)c(C(=O)Nc2ccccc2OCc2ccc(Cl)cc2Cl)c1Cl [Example 163]		71%	92%				4.81			71%		
Cn1nc(C(F)F)c(C(=O)Nc2cccc(-c3ccc(Cl)cc3)c2)c1Cl [Example 208]		100%	100%				4.04		100%	100%		
